Patent US6797726B1, “N-alkoxyalkyl-N,N-dialkylamine derivatives or salts thereof, and remedies for nerve degeneration diseases containing the same” (Toyama Chemical Co., Ltd., priority 1999, dated 2004)

Columns and labels:
ddY male mice = assay: Anti-hypoxic activity; assay type: in vivo; details: 100 mg/kg orally, 30 minutes after administration, gas 4% oxygen / 96% nitrogen at 5 L/minute
Procedure: A test compound (100 mg/kg) dissolved in distilled water is orally administered to ddY male mice of 5-6 weeks age (6-10 heads per group). Thirty minutes after the administration, each mouse was introduced into a glass vessel, and a gas mixture consisting of 4% of oxygen and 96% of nitrogen was passed through the glass vessel at a rate of 5 L/minute. The period of the time from the beginning of sending the gas to the death of the animal was measured.
To the control group, only distilled water was orally given. Anti-hypoxic activity of test compound was calculated according to the following equation:
(Survival time of mouse in administered group)÷(Survival time of mouse in control group)×100(%)

sciatic nerve = assay: Nerve-regeneration promoting activity (crushed sciatic nerve); assay type: in vivo; details: 10 mg/kg intra-abdominally, 1 hour after crushing then twice per day for 5 days, SD rats, measured six days after operation
Procedure: The test was carried out according to the description of Experimental Neurology, Vol. 140, Page 198 (1996). SD rats (male, 6 weeks age, body weight 160-200 g) were anesthetized with Pentobarbital. The left sciatic nerve was exposed from the upper femoral muscular texture and peeled off from the surrounding texture, while taking care so as to give no injury to the muscular fiber. […] The crushed zone was marked with a thread at the end of neurilemma, and the operated portion was sutured. One hour after the crushing, a test compound dissolved in physiological salt solution was administered intra-abdominally at a dosage of 10 mg/kg. Thereafter, the same administration as above was repeated twice per day far 5 days. Six days after the operation, the operated portion was again opened under an anesthesia using Pentobarbital to expose the sciatic nerve, and a forceps was made to contact to the nerve from a position about 25 mm distant from the crushed part. The forceps was slowly moved toward the crushed part until a reflex reaction appeared. […] To the control group, only a saline was given. The sciatic nerve regeneration rate of the test compound was calculated according to the following equation: (Regeneration distance in administration group)÷(Regeneration distance in control group)×100(%)

[1] = test system: cultured nerve cells death induced by HNE; assay: Activity of inhibiting the HNE-induced nerve cell death (MTT assay); assay type: cell-based, Wistar rat; details: 0.1 μM; HNE 25 μmol/L; cultured rat embryo cerebral cortex nerve cells; 24 hours
Description: The protecting effect against the death of cultured nerve cells induced by HNE was examined by a modification of the method described in the Journal of Neuroscience, Vol. 17, Page 5089 (1997).
(§1) Cerebral cortex excised from the brain of an embryo of Wistar rat (embryonal age 17-19 days) was cut into small pieces and then treated with trypsin to dissociate the nerve cells. The cells were spread onto a 48-well tissue-culture plate at a rate of 5×10^5 cells per well, and cultured under a condition of 5% carbon dioxide, 37° C., in a Dulbecco modified Eagle medium to which 10% fetal calf serum and 3.6 mg/mL glucose were added.
In order to inhibit the proliferation of glia cells, cytosine arabinoside was added so as to give a final concentration of 10 μmol/L, from the day one after starting the culture. When the culture had been continued for 2 days, the medium was changed to a Dulbecco modified Eagle medium to which 10% fetal calf serum and 3.6 mg/mL glucose were added. When the culture had been continued for 7-8 days, a test agent was added, after which HNE was immediately added so as to give a final concentration of 25 μmol/L.
The inhibitory activity of an agent on the cultured nerve cell death was […] by using the inhibitory activity on the depression of MTT reducing ability as an index. That is, 24 hours after addition of a test agent, MTT assay [Journal of Immunological Methods, Vol. 65, Page 55 (1983)] developed by Mossmann was carried out, based on which inhibitory rate (%) of the agent on the decrease of MTT assay induced by HNE was calculated.
Inhibitory rate=[MTT assay value of (HNE+agent)−added group)−(MTT assay value of HNE−added group)]÷(MTT assay value of no addition group−MTT assay value of HNE−added group)]×100

[2] = test system: cultured nerve cell death induced by Aβ; assay: Activity of inhibiting the Aβ-induced nerve cell death (MTT assay); assay type: cell-based, Wistar rat; details: 0.1 μM; Aβ (25-35) 20 μmol/L; cultured rat embryo cerebral cortex nerve cells
Description: The effect of inhibiting the death of cultured nerve cell induced by Aβ was examined by a modification of the method described in Brain Research, Vol. 639, Page 240 (1994).
as §1, with “1×10^5” for “5×10^5”, “B27 additives (product of GIBCO BRL)” for “10% fetal calf serum”
When the cultured had been continued for 12-13 days, a solution of potassium chloride was added so as to give a final concentration of 25 mmol/L, immediately after which a test agent was added. Twenty four hours after addition of the test agent, Aβ (25-35 peptide residues) dissolved in distilled water was added so as to give a final concentration of 20 μmol/L. Twenty four hours after addition of Aβ, the medium was changed to a medium prepared by adding test compound to Dulbecco modified Eagle medium to which B27 and 3.6 mg/mL glucose were added.
The inhibitory activity of test agent on the cultured nerve cell death was expressed by using the activity of inhibiting the decrease of MTT reducing ability as an index. That is, 48 hours after changing the medium, MTT assay developed by Mossmann [Journal of Immunological Methods, Vol. 65, Page 55 (1983)] was carried out, and the inhibition rate (%) of the agent on the decrease of MTT assay value induced by Aβ was calculated.
Inhibition rate=[(Aβ+MTT assay value of agent−added group)−(MTT assay value of Aβ−added group)]÷[MTT assay value of no addition group−MTT assay value of Aβ−added group]×100

[3] = test system: nerve cell death caused by Aβ; details: Society for Neuroscience, Abstracts, Vol. 24, No. 1, Page 228 (1998); cited from earlier work
NGF = details: WO96/12717; cited from earlier work

## CCN(CC)CCOCCc1ccc2sccc2c1.O=C(O)C(=O)O [Example 10]
ddY male mice
  Anti-hypoxic activity: (survival time of mouse in administered group)÷(survival time of mouse in control group)×100: 170%
Sciatic nerve
  Regeneration rate of sciatic nerve: (regeneration distance in administration group)÷(regeneration distance in control group)×100: 117%
[1]
  Inhibitory rate on the decrease of MTT assay induced by HNE: 58%

## CN(CCO)CCOCCc1c(F)cc2ccsc2c1F.Cl [Example 137, 2-[{2-[2-(5,7-Difluorobenzo[b]thiophen-6-yl)ethoxy]ethyl}(methyl)amino]-1-ethanol hydrochloride]
[2]
  Inhibition rate on the decrease of MTT assay value induced by Aβ: 37%
other
  melting point: 95.5 to 97.5 °C

## CCN(CC)CCOC[C@H](O)c1ccc2sccc2c1.Cl [Example T-588, (R)-1-(benzo[b]thiophen-5-yl)-2-[2-(N,N-diethylamino)ethoxy]ethanol hydrochloride]
[3]
  Protective action on the nerve cell death caused by Aβ: protective action
NGF
  Activity of reinforcing the function of NGF: activity of reinforcing the function of NGF

## CN(CCO)CCOCCc1ccc2sccc2c1.O=C(O)C(=O)O [Example 68, 2-{[2-(2-Benzo[b]thiophen-5-ylethoxy)ethyl]-(methyl)amino}-1-ethanol oxalate]
ddY male mice; Mus musculus, po, 0.5 h, read-out: Anti-hypoxic activity: (survival time of mouse in administered group)÷(survival time of mouse in control group)×100
  response vs control in vivo at 100 mg/kg: 202%
[2]
  Inhibition rate on the decrease of MTT assay value induced by Aβ: 28%
[1]
  Inhibitory rate on the decrease of MTT assay induced by HNE: 57%

## 2-[[2-(3-Benzo[b]thiophen-5-ylpropyl)-ethyl](methyl)amino]-1-ethanol oxalate [Example 119]
[2]
  Inhibition rate on the decrease of MTT assay value induced by Aβ: 39%

## CN(C)CCOCCc1ccc2sccc2c1.Cl [Example 16]
ddY male mice
  Anti-hypoxic activity: (survival time of mouse in administered group)÷(survival time of mouse in control group)×100: 158%
Sciatic nerve
  Regeneration rate of sciatic nerve: (regeneration distance in administration group)÷(regeneration distance in control group)×100: 115%

## CCN(CC)CCOCCc1ccc2sc(-c3ccccc3)cc2c1.Cl [Example 27, N,N-Diethyl-N-{2-[2-(2-phenylbenzo[b]-thiophen-5-yl)ethoxy]ethyl}-amine hydrochloride]
Sciatic nerve
  Regeneration rate of sciatic nerve: (regeneration distance in administration group)÷(regeneration distance in control group)×100: 126%
other
  melting point: 131 to 138 °C
